From ChEMBL document CHEMBL1132025, “Macrocyclic hexapeptide analogues of the thrombin receptor (PAR-1) activation motif SFLLRN” (Bioorg Med Chem Lett, 1999)
Numbered stars: 1 amine (or outer) side, 2 acyl side, 3 side chain; on linkers, the order of the positions; unused ones are H or OH. Bridge positions count the residues as written; N and C are the ends. Square brackets hold non-standard residues; d marks the D form. Peptide text beside a SMILES is read from it. Phe(3-F) = N[C@@H](Cc1cccc(F)c1)C(=O)O; Phe(4-F) = N[C@@H](Cc1ccc(F)cc1)C(=O)O; X1 = O=C(CCCN[*:2])[*:1]; GABA = NCCCC(=O)O; βAla = NCCC(=O)O

Experiments:
[1] = organism: Homo sapiens; assay: (§1) Agonist activity to activate human platelet aggregation (gel-filtered platelets) at a concentration of 50 uM; assay type: functional
[2] = target: Proteinase-activated receptor 1 (Homo sapiens) (UniProt P25116); assay: In vitro antagonist activity to inhibit human platelet aggregation (gel-filtered platelets) induced by human thrombin at a concentration of 50 uM
[3] = organism: Homo sapiens; assay: as §1; assay type: functional, organism-based
[4] = organism: Homo sapiens; assay: Agonist activity to activate human platelet aggregation (gel-filtered platelets) at a concentration of 100 uM; Not active; assay type: functional

| SMILES | inhibition [2] | EC50 [3] | EC50 [4] | Aggregation [1] |
| --- | --- | --- | --- | --- |
| CC(C)C[C@@H]1NC(=O)[C@@H](NC(=O)[C@@H](CCc2ccccc2)NC(=O)[C@@H](N)CO)CCCCNC(=O)C[C@@H](C(N)=O)NC(=O)[C@H](CCCN=C(N)N)NC1=O | 5% |  |  | 16% |
| CC(C)C[C@@H]1NC(=O)[C@@H](NC(=O)[C@@H](CCc2ccccc2)NC(=O)CCCN)CCCCNC(=O)C[C@@H](C(N)=O)NC(=O)[C@H](CCCN=C(N)N)NC1=O | 2% |  |  | 8% |
| CC(C)C[C@H](NC(=O)[C@H](CC(C)C)NC(=O)[C@H](Cc1ccccc1)NC(=O)[C@@H](N)CO)C(=O)N[C@@H](CCCN=C(N)N)C(=O)N[C@@H](CC(N)=O)C(N)=O |  | 0.8 µM |  |  |
| CC(C)C[C@@H]1NC(=O)[C@@](C)(NC(=O)[C@@H](Cc2ccccc2)NC(=O)CN)CCCCNC(=O)CCCNC(=O)C[C@@H](C(N)=O)NC(=O)[C@H](CCCN=C(N)N)NC1=O | 44% | 30 µM |  |  |
| CC(C)C[C@@H]1NC(=O)[C@@H](NC(=O)[C@H](Cc2ccccc2)NC(=O)[C@H](C)N)CCCCNC(=O)C[C@@H](C(N)=O)NC(=O)[C@H](CCCN=C(N)N)NC1=O (H-AFKLRD-NH2; lactam 3-6) | 2% | 66 µM |  |  |
| CC(C)C[C@@H]1NC(=O)[C@@H](NC(=O)[C@H](Cc2ccccc2)NC(=O)CN)CCCCNC(=O)C[C@@H](C(N)=O)NC(=O)[C@H](Cc2ccccc2)NC1=O (H-GFKLFD-NH2; lactam 3-6) | 23% | 24 µM |  |  |
| CC(C)C[C@@H]1NC(=O)[C@@H](NC(=O)[C@H](Cc2ccccc2)NC(=O)CN)CCCCNC(=O)C[C@@H](C(N)=O)NC(=O)[C@H](CCCN=C(N)N)NC1=O (H-GFKLRD-NH2; lactam 3-6) | 9% |  |  | 15% |
| CC(C)C[C@@H]1NC(=O)[C@@H](NC(=O)[C@H](Cc2cccc(F)c2)NC(=O)CN)CCCCNC(=O)C[C@@H](C(N)=O)NC(=O)[C@H](CCCN=C(N)N)NC1=O (H-G[Phe(3-F)]KLRD-NH2; lactam 3-6) | 10% |  |  | 6% |
| CC(C)C[C@@H]1NC(=O)[C@@H](NC(=O)[C@H](Cc2ccc(F)cc2)NC(=O)CN)CCCCNC(=O)C[C@@H](C(N)=O)NC(=O)[C@H](CCCN=C(N)N)NC1=O (H-G[Phe(4-F)]KLRD-NH2; lactam 3-6) | 14% | 60 µM |  |  |
| CC(C)C[C@@H]1NC(=O)[C@H](CC(C)C)NC(=O)[C@H](Cc2ccccc2)NC(=O)[C@@H](N)CCCCNC(=O)CCCNC(=O)C[C@@H](C(N)=O)NC(=O)[C@H](CCCN=C(N)N)NC1=O (H-KFLLRD-NH2; linker 1-6 via X1) | 52% |  |  | 5% |
| CC(C)C[C@@H]1NC(=O)[C@@H](NC(=O)[C@H](Cc2ccccc2)NC(=O)[C@@H](N)CO)CCCCNC(=O)C[C@@H](C(N)=O)NC(=O)[C@H](Cc2ccccc2)NC1=O (H-SFKLFD-NH2; lactam 3-6) | 12% |  | Not Active |  |
| CC(C)C[C@@H]1NC(=O)[C@@H](NC(=O)[C@H](Cc2cccc(F)c2)NC(=O)[C@@H](N)CO)CCCCNC(=O)C[C@@H](C(N)=O)NC(=O)[C@H](Cc2ccccc2)NC1=O (H-S[Phe(3-F)]KLFD-NH2; lactam 3-6) | 23% |  | Not Active |  |
| CC(C)C[C@@H]1NC(=O)[C@@H](NC(=O)[C@H](Cc2ccccc2)NC(=O)CCCN)CCCCNC(=O)C[C@@H](C(N)=O)NC(=O)[C@H](Cc2ccccc2)NC1=O (H-[GABA]FKLFD-NH2; lactam 3-6) | 14% |  | Not Active |  |
| CC(C)C[C@@H]1NC(=O)[C@@H](NC(=O)[C@H](Cc2ccccc2)NC(=O)CCN)CCCCNC(=O)C[C@@H](C(N)=O)NC(=O)[C@H](CCCN=C(N)N)NC1=O (H-[βAla]FKLRD-NH2; lactam 3-6) | 3% |  |  | 7% |
| CC(C)C[C@@H]1NC(=O)[C@@H](NC(=O)[C@H](Cc2cccc(F)c2)NC(=O)CCN)CCCCNC(=O)C[C@@H](C(N)=O)NC(=O)[C@H](Cc2ccccc2)NC1=O (H-[βAla][Phe(3-F)]KLFD-NH2; lactam 3-6) | 24% |  | Not Active |  |

Continued, in another order:

| inhibition [2] | EC50 [3] | EC50 [4] | SMILES | Aggregation [1] |
| --- | --- | --- | --- | --- |
| 2% |  |  | CC(C)C[C@@H]1NC(=O)[C@@H](NC(=O)[C@@H](CCc2ccccc2)NC(=O)CN)CCCCNC(=O)C[C@@H](C(N)=O)NC(=O)[C@H](CCCN=C(N)N)NC1=O | 5% |
| 1% |  |  | CC(C)C[C@@H]1NC(=O)[C@@H](NC(=O)[C@@H](CCc2ccccc2)NC(=O)CCN)CCCCNC(=O)C[C@@H](C(N)=O)NC(=O)[C@H](CCCN=C(N)N)NC1=O | 7% |
| 15% | 37 µM |  | CC(C)C[C@@H]1NC(=O)[C@@H](NC(=O)[C@@H](CCc2ccccc2)NC(=O)CCCN)CCCCNC(=O)C[C@@H](C(N)=O)NC(=O)[C@H](Cc2ccccc2)NC1=O |  |
| 2% |  | Not Active | CC(C)C[C@@H]1NC(=O)[C@@H](NC(=O)[C@@H](CCc2ccccc2)NC(=O)[C@@H](N)CO)CCCCNC(=O)C[C@@H](C(N)=O)NC(=O)[C@H](Cc2ccccc2)NC1=O |  |
| 16% | 43 µM |  | CC(C)C[C@@H]1NC(=O)[C@@H](NC(=O)[C@@H](CCc2ccccc2)NC(=O)CCN)CCCCNC(=O)C[C@@H](C(N)=O)NC(=O)[C@H](Cc2ccccc2)NC1=O |  |
| 11% |  | Not Active | CC(C)C[C@@H]1NC(=O)[C@@H](NC(=O)[C@@H](Cc2ccccc2)NC(=O)CCN)CCCCNC(=O)C[C@@H](C(N)=O)NC(=O)[C@H](Cc2ccccc2)NC1=O |  |
| 1% |  | Not Active | CC(C)C[C@@H]1NC(=O)[C@@H](NC(=O)[C@@H](CCc2ccccc2)NC(=O)CN)CCCCNC(=O)C[C@@H](C(N)=O)NC(=O)[C@H](Cc2ccccc2)NC1=O |  |
| 11% | 63 µM |  | CC(C)C[C@@H]1NC(=O)[C@@H](NC(=O)[C@H](Cc2cccc(F)c2)NC(=O)CN)CCCCNC(=O)C[C@@H](C(N)=O)NC(=O)[C@H](Cc2ccccc2)NC1=O (H-G[Phe(3-F)]KLFD-NH2; lactam 3-6) |  |
| 3% |  |  | CC(C)C[C@@H]1NC(=O)[C@H](CC(C)C)NC(=O)[C@H](Cc2ccccc2)NC(=O)[C@@H](N)CCCCNC(=O)C[C@@H](C(N)=O)NC(=O)[C@H](CCCN=C(N)N)NC1=O (H-KFLLRD-NH2; lactam 1-6) | 6% |
| 13% |  |  | CC(C)C[C@@H]1NC(=O)[C@@H](NC(=O)[C@H](Cc2ccccc2)NC(=O)[C@@H](N)CO)CCCCNC(=O)C[C@@H](C(N)=O)NC(=O)[C@H](CCCN=C(N)N)NC1=O (H-SFKLRD-NH2; lactam 3-6) | 16% |
| 5% |  |  | CC(C)C[C@@H]1NC(=O)[C@@H](NC(=O)[C@H](Cc2cccc(F)c2)NC(=O)[C@@H](N)CO)CCCCNC(=O)C[C@@H](C(N)=O)NC(=O)[C@H](CCCN=C(N)N)NC1=O (H-S[Phe(3-F)]KLRD-NH2; lactam 3-6) | 12% |
| 6% |  |  | CC(C)C[C@@H]1NC(=O)[C@@H](NC(=O)[C@H](Cc2ccccc2)NC(=O)CCCN)CCCCNC(=O)C[C@@H](C(N)=O)NC(=O)[C@H](CCCN=C(N)N)NC1=O (H-[GABA]FKLRD-NH2; lactam 3-6) | 6% |
| 27% |  | Not Active | CC(C)C[C@@H]1NC(=O)[C@@H](NC(=O)[C@H](Cc2cccc(F)c2)NC(=O)CCCN)CCCCNC(=O)C[C@@H](C(N)=O)NC(=O)[C@H](Cc2ccccc2)NC1=O (H-[GABA][Phe(3-F)]KLFD-NH2; lactam 3-6) |  |
| 2% |  |  | CC(C)C[C@@H]1NC(=O)[C@@H](NC(=O)[C@H](Cc2cccc(F)c2)NC(=O)CCCN)CCCCNC(=O)C[C@@H](C(N)=O)NC(=O)[C@H](CCCN=C(N)N)NC1=O (H-[GABA][Phe(3-F)]KLRD-NH2; lactam 3-6) | 6% |
| 3% |  |  | CC(C)C[C@@H]1NC(=O)[C@@H](NC(=O)[C@H](Cc2cccc(F)c2)NC(=O)CCN)CCCCNC(=O)C[C@@H](C(N)=O)NC(=O)[C@H](CCCN=C(N)N)NC1=O (H-[βAla][Phe(3-F)]KLRD-NH2; lactam 3-6) | 7% |
